Values of other authors in patent US20250257354A1, “METHODS AND COMPOSITIONS RELATED TO TRNA THERAPEUTICS FOR TREATING VISION LOSS” (UNIVERSITY OF IOWA RESEARCH FOUNDATION, priority 2022, published 2025).

Details: ACT DMD Phase 3 NCT01826487; ACT CF NCT02139306

O=C(O)c1cccc(-c2noc(-c3ccccc3F)n2)c1 [Ataluren]
efficacy in patient populations: unexpectedly low efficacy
